Source: PubChem BioAssay (NCI)
Several values for one entry are separate records, joined by “and”; a condition that tells them apart may be missing. Equal values may be shown once.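 1) Cells in 96-well plates. 2) Compound, 48 h, 5 concentrations. 3) Linear interpolation between surrounding doses. 4) Unreached endpoint = highest concentration. The concentration for 50% growth inhibition is given as GI50. At the TGI there is no net growth.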

Experiments:
Experiment in all cases: DTP human tumour cell line panel, 48 h
SK-MEL-2 melanoma = test system: SK-MEL-2 melanoma
OVCAR-3 ovarian = test system: OVCAR-3 ovarian
NCI-H522 lung = test system: NCI-H522 lung
UO-31 renal = test system: UO-31 renal
HL-60(TB) leukemia = test system: HL-60(TB) leukemia
NCI-H23 lung = test system: NCI-H23 lung
SW-620 colon = test system: SW-620 colon
ACHN renal = test system: ACHN renal
HOP-62 NSCLC = test system: HOP-62 NSCLC
LOX IMVI melanoma = test system: LOX IMVI melanoma

Row | SMILES | GI50 (SK-MEL-2 melanoma) [nM] | TGI (SK-MEL-2 melanoma) [nM] | GI50 (OVCAR-3 ovarian) | TGI (OVCAR-3 ovarian) | GI50 (NCI-H522 lung) | TGI (NCI-H522 lung) | GI50 (UO-31 renal) [nM] | TGI (UO-31 renal) [nM] | GI50 (HL-60(TB) leukemia) [nM] | TGI (HL-60(TB) leukemia) [nM] | GI50 (NCI-H23 lung) | TGI (NCI-H23 lung) [nM] | GI50 (SW-620 colon) | TGI (SW-620 colon) [nM] | GI50 (ACHN renal) [nM] | TGI (ACHN renal) [nM] | GI50 (HOP-62 NSCLC) [nM] | TGI (HOP-62 NSCLC) [nM] | GI50 (LOX IMVI melanoma) | TGI (LOX IMVI melanoma) [nM]
1 | CCCCOc1nc2ccccc2cc1C1CNC(=O)c2ccccc2N1 (configuration not stated) | 4060 | 29600 | 1560 nM | 3860 nM | 2750 nM | 21200 nM | 2830 | 20000 | 357 | 1900 | 5190 nM | 35100 | 2590 nM | 21500 | 4310 | 17800 | 3080 | 17700 | 3240 nM | 15400
2 | COC(=O)CCCCCCCCC(=O)c1c(C)[nH]c(/C=C2\N=C(c3ccc[nH]3)C=C2OC)c1C | 8850 | > 29100 | > 48100 nM | > 86300 nM | 8550 nM | > 69900 nM | 30500 | > 73600 | 2860 | 16600 | > 100000 nM | > 100000 | > 62000 nM | > 100000 | 20600 | > 72700 | 11200 | > 57900 | 207 nM | 466
3 | CCC[CH2][Sn]1([CH2]CCC)[O]N=Cc2ccccc2[O]1 | 317 | 1070 | 402 nM | 1570 nM | 102 nM | 229 nM | 1330 | 2610 | 183 | 726 | 413 nM | 1680 | 241 nM | 1110 | 1180 | 2430 | 1620 | 3120 | 377 nM | 1350
4 | COC(=O)C12CC(NC(=O)c3csc([C@@H](C[C@H](C(C)C)N(C)C(=O)[C@@H](NC(=O)[C@H]4CCCCN4C)C(C)C)OC(C)=O)n3)(C1)C2 | 1.97 | – | 0.335 nM and 3.33 nM | 2.4 nM and 4.41 nM | 0.185 nM and < 3.33 nM | 0.929 nM and < 3.33 nM | 46.2 | – | 0.345 | 3.02 | 10.4 nM and 3.33 nM | > 33300 | 0.535 nM and 3.33 nM | > 33300 | 17.4 | > 33300 | 3.53 | – | 2.17 nM and 3.33 nM | > 33300
5 | CC(=O)O[C@H]1Cc2c([nH]c3ccccc23)[C@@H](c2ccc(Cl)cc2)N1C(=O)CCNC(C)(C)C | 4930 | 9880 | 3980 nM | 8590 nM | 5820 nM | 11000 nM | 1450 | 6080 | 2510 | 11700 | 5120 nM | 10500 | 4120 nM | 8800 | 4130 | 8290 | 2670 | 7070 | 2430 nM | 6720
6 | c1ccc(-c2nn(-c3ccccc3)[n+](-c3ccccc3-c3ccccc3)n2)cc1 | 1800 | 7690 | 416 nM | 15500 nM | 478 nM | 8180 nM | 11600 | > 77600 | 238 | 878 | 683 nM | 8630 | 1400 nM | > 73100 | 5380 | > 100000 | 2100 | > 42200 | 1020 nM | 18800
